# Laboratory results as given in patent US9999218B2, “Pest control formulations and methods of making and using same” (0903608 B.C. Ltd., priority 2011, dated 2018).
# Like-named read-outs stand apart in the source and are kept apart here.
# Columns and labels:
# bed bug eggs = assay type: in vivo, Cimex lectularius L.
# From the text: Immediately after infestation, and at 1-, 2-, and 3-week intervals thereafter, the numbers of hatched and unhatched eggs present in the sealed dishes were counted and compared to other Treated Groups. One egg was counted as “hatched” for every new nymph present in the petri dish when compared with the prior interval. Table 13 compares the % egg eclosion of the treated groups at the 3-week observation interval. The maximum mortality data obtained in Example 3, above, are included for comparison purposes.
# adult bed bugs [1] = assay type: in vivo
# adult bed bugs [2] = details: […] neem oil + […] named solvent in isopropanol, 4 h dried in highly-ventilated room; for Max. Mortality: observed until 14 days
# Experimental: This example illustrates the dry residual pesticidal activity of formulations including neem oil and various organic solvents including alcohols, ketones, esters and carboxylic acids. […] The percent by weight of each solvent was varied to ensure a consistent molar quantity of solvent in each solution. Treated Groups for each solution were prepared by treating filter paper, 90 mm in diameter, with 1.0 mL of solution and allowing it to air dry for four hours in a highly-ventilated room. A known number of adults were added to each treated dish, four hours after treatment. Bed bug mortality was assessed immediately after infestation and at 1-hour, 2-hour, 4-hour, 6-hour, 8-hour, 10-hour, 12-hour, and 24-hour intervals, and at 24-hour intervals thereafter until 14 days after infestation. Adult bed bugs were counted dead if they were unresponsive when stimulated.
# [3] = […] neem oil + named solvent in isopropanol, 4 h dried residue, 3 weeks after infestation
# [4] = […] neem oil + […] named solvent in isopropanol, 4 h dried residue
# [5] = […] neem oil + […] named solvent in isopropanol, 4 h dried residue, observed until 14 days
Structure (SMILES),% Eclosion (bed bug eggs; [3]) [%],Time to Max Mortality (adult bed bugs [1]; [4]) [h],Max. Mortality (adult bed bugs [1]; [5]) [%],Time to Max Mortality (adult bed bugs [2]) [days],Max. Mortality (adult bed bugs [2]) [%],also measured
CC(O)c1ccccc1 (centres unmarked) [1-Phenylethanol],0,24,100,,,
"O=C(c1ccc(O)cc1O)c1ccc(O)cc1O [2,2′-4,4′ Tetrahydroxybenzophenone]",0,24,100,,,
"CC(C)CC(O)CC(C)C [2,6-Dimethyl-4-heptanol]",,,,14,20,
CCCCCCC(CO)CCCC (centres unmarked) [2-Butyl-1-octanol],,,,8,100,
CCCCC(CC)CO (centres unmarked) [2-Ethyl-1-hexanol],0,,,,,Max. Mortality (adult bed bugs [1]; in vivo): 100%; Time to Max Mortality (adult bed bugs [1]; in vivo): 72 h
CC(C)(O)c1ccccc1 [2-Phenyl-2-propanol],,,,1,100,
"CC(C)O [2-Propanol (IPA), 2-Propanol]",,140,40,,,
CCCCCCCCC(CO)CCCCCC (centres unmarked) [2-hexyl-1-decanol],,,,14,100,
Cc1ccc(O)c(C=O)c1 [2-hydroxy-5-methyl benzaldehyde],,,,1,100,
CC(=O)OC1CCCCC1C(C)(C)C (centres unmarked) [2-tert-Butylcyclohexylacetate],20,96,100,,,
"CC(=O)c1ccc(C)cc1C [2′,4′-Dimethylacetophenone]",0,24,100,,,
CC(=O)c1ccccc1O [2′-Hydroxyacetophenone],,,,1,100,
"Cc1ccc(CO)cc1C [3,4-dimethylbenzyl alcohol]",,,,14,100,
"CC(=O)c1ccc(C)c(C)c1 [3′,4′-Dimethylacetophenone]",0,48,100,,,
O=C(O)c1ccc(O)cc1 [4-Hydroxy benzoic acid],,,,1,100,
Cc1cc(C(=O)O)ccc1O [4-Hydroxy-3-methyl benzoic acid],,,,14,60,
CC(=O)c1ccc(O)cc1 [4′-Hydroxyacetophenone],,,,9,50,
CCCCC(=O)c1ccc(O)cc1 [4′-Hydroxyvalerophenone],,,,14,70,
CC(=O)c1ccc(C)cc1 [4′-Methylacetophenone],0,48,100,,,
CCC(=O)c1ccc(C)cc1 [4′-Methylpropiophenone],0,24,100,,,
Cc1ccc(C(C)O)cc1 (stereo not drawn) [Alpha-4-dimethylbenzyl alcohol],,,,1,100,
O=Cc1ccccc1 [Benzaldehyde],0,336,100,,,
c1ccccc1 [Benzene],,,,14,40,
O=C(O)c1ccccc1 [Benzoic acid],0,,,,,Max. Mortality (adult bed bugs [1]; in vivo): 100%; Time to Max Mortality (adult bed bugs [1]; in vivo): 48 h
OCc1ccccc1 [Benzyl alcohol],0,24,100,,,
O=C(OCc1ccccc1)c1ccccc1 [Benzyl benzoate],,,,8,100,
COCc1ccccc1 [Benzyl methyl ether],,,,8,60,

Structure (SMILES),% Eclosion (bed bug eggs; [3]) [%],Time to Max Mortality (adult bed bugs [1]; [4]) [h],Max. Mortality (adult bed bugs [1]; [5]) [%],Time to Max Mortality (adult bed bugs [2]) [days],Max. Mortality (adult bed bugs [2]) [%],also measured
CCCCOc1ccccc1 [Butyl phenyl ether],,,,6,100,
CCCC(=O)c1ccccc1 [Butyrophenone],0,24,100,,,
OC1CCCCC1 [Cyclohexanol],60,336,60,,,
O=C1CCCCC1 [Cyclohexanone],40,240,50,,,
O=C(c1ccccc1)C1CCCCC1 [Cyclohexyl phenyl ketone],,,,8,90,
c1ccc(COCc2ccccc2)cc1 [Dibenzyl ether],,,,7,90,
c1ccc(Oc2ccccc2)cc1 [Diphenyl ether],,,,3,100,
CCOC(C)=O [Ethyl acetate],100,336,30,,,
CCOC(=O)c1ccccc1 [Ethyl benzoate],,,,2,100,
CCCCCC(=O)c1ccccc1 [Hexanophenone],0,140,100,,,
CC(C)COC(=O)c1ccccc1 [Isobutyl benzoate],,,,8,90,
CC(C)C(=O)c1ccccc1 [Isobutyrophenone],0,48,100,,,
CC(=O)C1CCCCC1 [Methylcyclohexylketone],80,264,70,,,
Oc1ccccc1 [Phenol],,,,1,100,
CCC(=O)c1ccccc1 [Propiophenone],0,24,100,,,
CCCOC(=O)c1ccc(O)cc1 [Propyl-4-hydroxybenzoate],0,24,100,,,
"CCCCO [Solution 1-Butanol, 1-Butanol]",,,,,,% Eclosion (bed bug eggs; in vivo): 100%; Max. Mortality (adult bed bugs [1]; in vivo): 40%; Time to Max Mortality (adult bed bugs [1]; in vivo): 190 h
"CCCCCCCCCCO [Solution 1-Decanol, 1-Decanol]",0,,,,,Max. Mortality (adult bed bugs [1]; in vivo): 100%; Time to Max Mortality (adult bed bugs [1]; in vivo): 264 h
"CCCCCCO [Solution 1-Hexanol, 1-Hexanol]",0,,,,,Max. Mortality (adult bed bugs [1]; in vivo): 40%; Time to Max Mortality (adult bed bugs [1]; in vivo): 336 h
"CCCCCCCCCO [Solution 1-Nonanol, 1-Nonanol]",,,,2,100,
"CCCCCCCCCCCCO [Solution 1-dodecanol, 1-dodecanol]",,,,14,90,
"CCCCCCC(C)O (centres unmarked) [Solution 2-Octanol, 2-Octanol]",,,,2,100,
"CCCCC(O)CC (centres unmarked) [Solution 3-Heptanol, 3-Heptanol]",,,,14,30,
Cc1ccccc1 [Toluene],,,,14,50,
C/C=C/c1ccc(OC)cc1 [Trans-anethole],,,,5,100,
Cc1ccc(C=O)cc1 [p-Tolualdehyde],,,,6,50,
Cc1ccc(C)cc1 [p-Xylene],,,,14,30,
